According to ChEMBL document CHEMBL1201862, “PubChem BioAssay data set” (2004):
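Test compounds were applied to cells in 96-well plates for 48 hours at 5 doses. At the GI50, growth is halved.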 The source made the active and inactive calls. No stated cut-off is given here; in the data, active = GI50 up to about 1.1 µM and inactive = higher.

Tests used:
Experiment in all cases: DTP human tumour cell line panel, 48 h
NCI-H23 = tested on: NCI-H23
TK-10 = tested on: TK-10
ACHN = tested on: ACHN
HCC 2998 = tested on: HCC 2998
T47D = tested on: T47D
UACC-257 = tested on: UACC-257
EKVX = tested on: EKVX
CCRF-CEM = tested on: CCRF-CEM
RPMI-8226 = tested on: RPMI-8226
OVCAR-3 = tested on: OVCAR-3
NCI/ADR-RES = tested on: NCI/ADR-RES
SK-MEL-28 = tested on: SK-MEL-28
SF-295 = tested on: SF-295
LOX IMVI = tested on: LOX IMVI
HOP-92 = tested on: HOP-92
OVCAR-5 = tested on: OVCAR-5
SN12C = tested on: SN12C
DU-145 = tested on: DU-145
RXF 393 = tested on: RXF 393
HCT-116 = tested on: HCT-116
SF-268 = tested on: SF-268
MCF7 = tested on: MCF7
MDA-N = tested on: MDA-N
NCI-H460 = tested on: NCI-H460
UACC-62 = tested on: UACC-62
A549 = tested on: A549
NCI-H226 = tested on: NCI-H226
A498 = tested on: A498
MDA-MB-435 = tested on: MDA-MB-435
M14 = tested on: M14
CAKI-1 = tested on: CAKI-1
SR = tested on: SR
K562 = tested on: K562
SNB-19 = tested on: SNB-19
786-0 = tested on: 786-0
SNB-75 = tested on: SNB-75
MOLT-4 = tested on: MOLT-4
OVCAR-4 = tested on: OVCAR-4
U-251 = tested on: U-251
SK-OV-3 = tested on: SK-OV-3
COLO 205 = tested on: COLO 205
SW-620 = tested on: SW-620
KM12 = tested on: KM12
MDA-MB-231 = tested on: MDA-MB-231
SF-539 = tested on: SF-539
OVCAR-8 = tested on: OVCAR-8
HOP-62 = tested on: HOP-62
HL-60 = tested on: HL-60
BT-549 = tested on: BT-549
SK-MEL-5 = tested on: SK-MEL-5
PC-3 = tested on: PC-3
HCT-15 = tested on: HCT-15
Hs-578T = tested on: Hs-578T
UO-31 = tested on: UO-31
IGROV-1 = tested on: IGROV-1
HT-29 = tested on: HT-29
SK-MEL-2 = tested on: SK-MEL-2
Malme-3M = tested on: Malme-3M
NCI-H522 = tested on: NCI-H522

Cc1cc(C)n(C(=O)CSc2nnc(SCC(=O)n3nc(C)cc3C)s2)n1
GI50 (NCI-H23): > 100 µM (inactive) | GI50 (TK-10): > 100 µM (inactive) | GI50 (ACHN): > 100 µM (inactive) | GI50 (HCC 2998): > 100 µM (inactive) | GI50 (T47D): > 100 µM (inactive) | GI50 (UACC-257): > 100 µM (inactive) | GI50 (EKVX): 25.5 µM (inactive) | GI50 (CCRF-CEM): > 100 µM (inactive) | GI50 (RPMI-8226): > 100 µM (inactive) | GI50 (OVCAR-3): 91.8 µM (inactive) | GI50 (NCI/ADR-RES): > 100 µM (inactive) | GI50 (SK-MEL-28): > 100 µM (inactive) | GI50 (SF-295): > 100 µM (inactive) | GI50 (LOX IMVI): > 100 µM (inactive) | GI50 (HOP-92): > 100 µM (inactive) | GI50 (OVCAR-5): > 100 µM (inactive) | GI50 (SN12C): > 100 µM (inactive) | GI50 (DU-145): > 100 µM (inactive) | GI50 (RXF 393): > 100 µM (inactive) | GI50 (HCT-116): > 100 µM (inactive) | GI50 (SF-268): > 100 µM (inactive) | GI50 (MCF7): > 100 µM (inactive) | GI50 (MDA-N): > 100 µM (inactive) | GI50 (NCI-H460): > 100 µM (inactive) | GI50 (UACC-62): > 100 µM (inactive) | GI50 (A549): > 100 µM (inactive) | GI50 (NCI-H226): > 100 µM (inactive) | GI50 (A498): > 100 µM (inactive) | GI50 (MDA-MB-435): > 100 µM (inactive) | GI50 (M14): > 100 µM (inactive) | GI50 (CAKI-1): > 100 µM (inactive) | GI50 (SR): > 100 µM (inactive) | GI50 (K562): > 100 µM (inactive) | GI50 (SNB-19): > 100 µM (inactive) | GI50 (786-0): > 100 µM (inactive) | GI50 (SNB-75): 40 µM (inactive) | GI50 (MOLT-4): > 100 µM (inactive) | GI50 (OVCAR-4): > 100 µM (inactive) | GI50 (U-251): > 100 µM (inactive) | GI50 (SK-OV-3): > 100 µM (inactive) | GI50 (COLO 205): > 100 µM (inactive) | GI50 (SW-620): > 100 µM (inactive) | GI50 (KM12): > 100 µM (inactive) | GI50 (MDA-MB-231): > 100 µM (inactive) | GI50 (SF-539): > 100 µM (inactive) | GI50 (OVCAR-8): > 100 µM (inactive) | GI50 (HOP-62): 80 µM (inactive) | GI50 (HL-60): > 100 µM (inactive) | GI50 (BT-549): > 100 µM (inactive) | GI50 (SK-MEL-5): > 100 µM (inactive) | GI50 (PC-3): > 100 µM (inactive) | GI50 (HCT-15): > 100 µM | GI50 (Hs-578T): 33.8 µM (inactive) | GI50 (UO-31): > 100 µM (inactive)

OC1(c2ccc(Cl)cc2)C(N2CCCC2)c2ccccc2C2=NCCN21 (stereo not given)
GI50 (NCI-H23): 24.3 µM (inactive) | GI50 (IGROV-1): 16.1 µM (inactive) | GI50 (TK-10): 14.6 µM (inactive) | GI50 (ACHN): 30.3 µM (inactive) | GI50 (T47D): 17.7 µM (inactive) | GI50 (HT-29): 7.13 µM (inactive) | GI50 (UACC-257): 20.1 µM (inactive) | GI50 (EKVX): 26 µM (inactive) | GI50 (CCRF-CEM): 17.6 µM (inactive) | GI50 (RPMI-8226): 13 µM (inactive) | GI50 (OVCAR-3): 37.2 µM (inactive) | GI50 (NCI/ADR-RES): 18.6 µM (inactive) | GI50 (SK-MEL-28): 13.9 µM (inactive) | GI50 (SF-295): 13.6 µM (inactive) | GI50 (LOX IMVI): 18.1 µM (inactive) | GI50 (HOP-92): 12.6 µM (inactive) | GI50 (OVCAR-5): 43.7 µM (inactive) | GI50 (SN12C): 30.7 µM (inactive) | GI50 (DU-145): 32.4 µM (inactive) | GI50 (RXF 393): 29.1 µM (inactive) | GI50 (HCT-116): 10.9 µM (inactive) | GI50 (SF-268): 47.5 µM (inactive) | GI50 (MCF7): 28.5 µM (inactive) | GI50 (SK-MEL-2): 21.9 µM (inactive) | GI50 (MDA-N): 17.8 µM (inactive) | GI50 (Malme-3M): 18.5 µM (inactive) | GI50 (NCI-H460): 24.2 µM (inactive) | GI50 (UACC-62): 16.6 µM (inactive) | GI50 (A549): 39.9 µM (inactive) | GI50 (A498): 21.2 µM (inactive) | GI50 (MDA-MB-435): 25.6 µM (inactive) | GI50 (M14): 15.8 µM (inactive) | GI50 (CAKI-1): 26.5 µM (inactive) | GI50 (SR): 15.1 µM (inactive) | GI50 (K562): 13.6 µM (inactive) | GI50 (SNB-19): 54.3 µM (inactive) | GI50 (786-0): 35.1 µM (inactive) | GI50 (MOLT-4): 16 µM (inactive) | GI50 (OVCAR-4): 20 µM (inactive) | GI50 (U-251): 37.4 µM (inactive) | GI50 (SK-OV-3): 20.9 µM (inactive) | GI50 (COLO 205): 11.5 µM (inactive) | GI50 (SW-620): 20.3 µM (inactive) | GI50 (KM12): 20.1 µM (inactive) | GI50 (MDA-MB-231): 24.3 µM (inactive) | GI50 (SF-539): 18.5 µM (inactive) | GI50 (OVCAR-8): 23.9 µM (inactive) | GI50 (HOP-62): 31.8 µM (inactive) | GI50 (HL-60): 20.7 µM (inactive) | GI50 (BT-549): 27 µM (inactive) | GI50 (SK-MEL-5): 15.1 µM (inactive) | GI50 (PC-3): 30 µM (inactive) | GI50 (HCT-15): 21.4 µM | GI50 (Hs-578T): 29.9 µM (inactive) | GI50 (UO-31): 33 µM (inactive)

COc1ccc2c(c1)CC1C3(CCCCC23)CC[N+]1(C)C (stereo not given)
GI50 (NCI-H23): > 100 µM (inactive) | GI50 (IGROV-1): > 100 µM (inactive) | GI50 (TK-10): > 100 µM (inactive) | GI50 (ACHN): > 100 µM (inactive) | GI50 (HCC 2998): > 100 µM (inactive) | GI50 (T47D): > 100 µM (inactive) | GI50 (HT-29): > 100 µM (inactive) | GI50 (UACC-257): > 100 µM (inactive) | GI50 (EKVX): > 100 µM (inactive) | GI50 (CCRF-CEM): > 100 µM (inactive) | GI50 (RPMI-8226): > 100 µM (inactive) | GI50 (OVCAR-3): 75.5 µM (inactive) | GI50 (NCI/ADR-RES): > 100 µM (inactive) | GI50 (SK-MEL-28): > 100 µM (inactive) | GI50 (SF-295): > 100 µM (inactive) | GI50 (LOX IMVI): > 100 µM (inactive) | GI50 (HOP-92): 87.5 µM (inactive) | GI50 (OVCAR-5): > 100 µM (inactive) | GI50 (SN12C): 38.7 µM (inactive) | GI50 (DU-145): > 100 µM (inactive) | GI50 (RXF 393): > 100 µM (inactive) | GI50 (HCT-116): > 100 µM (inactive) | GI50 (SF-268): 90.8 µM (inactive) | GI50 (MCF7): > 100 µM (inactive) | GI50 (SK-MEL-2): > 100 µM (inactive) | GI50 (MDA-N): > 100 µM (inactive) | GI50 (Malme-3M): > 100 µM (inactive) | GI50 (NCI-H460): > 100 µM (inactive) | GI50 (UACC-62): > 100 µM (inactive) | GI50 (A549): > 100 µM (inactive) | GI50 (NCI-H226): > 100 µM (inactive) | GI50 (MDA-MB-435): 84.9 µM (inactive) | GI50 (M14): > 100 µM (inactive) | GI50 (CAKI-1): > 100 µM (inactive) | GI50 (SR): > 100 µM (inactive) | GI50 (K562): 75.5 µM (inactive) | GI50 (SNB-19): 73.5 µM (inactive) | GI50 (786-0): > 100 µM (inactive) | GI50 (SNB-75): 34.4 µM (inactive) | GI50 (MOLT-4): > 100 µM (inactive) | GI50 (OVCAR-4): > 100 µM (inactive) | GI50 (U-251): 66.7 µM (inactive) | GI50 (SK-OV-3): > 100 µM (inactive) | GI50 (COLO 205): > 100 µM (inactive) | GI50 (KM12): > 100 µM (inactive) | GI50 (MDA-MB-231): > 100 µM (inactive) | GI50 (OVCAR-8): > 100 µM (inactive) | GI50 (HOP-62): > 100 µM (inactive) | GI50 (HL-60): 50.5 µM (inactive) | GI50 (BT-549): 24.9 µM (inactive) | GI50 (SK-MEL-5): > 100 µM (inactive) | GI50 (PC-3): > 100 µM (inactive) | GI50 (NCI-H522): 58.9 µM (inactive) | GI50 (HCT-15): > 100 µM | GI50 (Hs-578T): > 100 µM (inactive) | GI50 (UO-31): > 100 µM (inactive)
